Data: US20080108600A1, “Polycyclic Pyridines as Potassium Ion Channel Modulators” (Icagen, Inc., priority 2004, published 2008)
“And” between values parts separate entries of the source, which are not always exact repeats. Equal values may be shown once. Where a name gives a salt, the structure may show the parent alone.

Molecular target: hSK2 (Homo sapiens, UniProt Q9H2S1)
Experiment: 86Rb+ efflux assay for compound activity towards hSK channels
Type: cell-based
Details: 86Rb+ efflux stimulated with calcium ionophore; drug 0.01 to 30 μM; read-out: hSK2 Inhibitory Activity
Protocol: 24.1 Assay for Compound Activity Towards hSK Channels
Cells expressing small conductance, calcium activated potassium channels, such as SK-like channels were loaded with ^86Rb^+ by culture in media containing ^86RbCl. Following loading, the culture media was removed and the cells were washed in EBSS to remove residual traces of ^86Rb^+. Cells were preincubated with the drug (0.01 to 30 μM in EBSS) and then ^86Rb^+ efflux was stimulated by exposing cells to EBSS solution supplemented with a calcium ionophore, such as ionomycin, in the continued presence of the drug. After a suitable efflux period, the EBSS/ionophore solution was removed from the cells and the ^86Rb^+ content was determined by Cherenkov counting (Wallac Trilux). Cells were then lysed with a SDS solution and the ^86Rb^+ content of the lysate was determined. Percent ^86Rb^+ efflux was calculated according to the following equation:
(^86Rb^+ content in EBSS/(86Rb^+ content in EBSS+^86Rb^+ content of the lysate))×100

Compound	IC50
Cc1ccc(-c2cccc(-c3nc4ccc(Cl)cc4[nH]3)n2)nc1 [6′-(6-Chloro-1H-benzoimidazol-2-yl)-5-methyl-[2,2′]bipyridinyl]	100 to 500 nM
O=C1CCCCN1c1ccc(Nc2cccc(-n3cccn3)n2)nc1 [6′-(6-Pyrazol-1-yl-pyridin-2-ylamino)-3,4,5,6-tetrahydro-[1,3′]bipyridinyl-2-one]	< 100 nM
COc1ccc(-c2cnccn2)nc1Nc1ccc(N2CCCCC2)cn1 [(3-Methoxy-6-pyrazin-2-yl-pyridin-2-yl)-(3,4,5,6-tetrahydro-2H-[1,3′]bipyridinyl-6′-yl)-amine]	< 100 nM
COc1ccc(-c2cnccn2)nc1Nc1ccc(N2CCN(C)CC2)cn1 [(3-Methoxy-6-pyrazin-2-yl-pyridin-2-yl)-[5-(4-methyl-piperazin-1-yl)-pyridin-2-yl]-amine]	< 100 nM
COc1ccc(-c2nccs2)nc1Nc1ccc(-c2ccccc2)cn1 [(3-Methoxy-6-thiazol-2-yl-pyridin-2-yl)-(5-phenyl-pyridin-2-yl)-amine]	100 to 500 nM
COc1ccc(-c2nccs2)nc1Nc1ccc(N2CCNC(C)C2)cn1 (stereo not shown) [(3-Methoxy-6-thiazol-2-yl-pyridin-2-yl)-[5-(3-methyl-piperazin-1-yl)-pyridin-2-yl]-amine]	100 to 500 nM
COc1ccc(-c2nccs2)nc1Nc1ccc(N2CCCN(C)CC2)cn1 [(3-Methoxy-6-thiazol-2-yl-pyridin-2-yl)-[5-(4-methyl-[1,4]diazepan-1-yl)-pyridin-2-yl]-amine]	100 to 500 nM
COc1ccc(-c2nccs2)nc1Nc1ccccn1 [(3-Methoxy-6-thiazol-2-yl-pyridin-2-yl)-pyridin-2-yl-amine]	< 100 nM
Brc1ccc(Nc2cccc(-n3cccn3)n2)nc1 [(5-Bromo-pyridin-2-yl)-(6-pyrazol-1-yl-pyridin-2-yl)-amine]	< 100 nM
c1cc(Nc2nnc(C3CC3)s2)nc(-c2nccs2)c1 [(5-Cyclopropyl-[1,3,4]thiadiazol-2-yl)-(6-thiazol-2-yl-pyridin-2-yl)-amine]	100 to 500 nM
C=C(C)c1ccc(Nc2cccc(-n3cc(C)cn3)n2)nc1 [(5-Isopropenyl-pyridin-2-yl)-[6-(4-methyl-pyrazol-1-yl)-pyridin-2-yl]-amine]	< 100 nM
COc1ccc(-c2cnccn2)nc1Nc1ccc(C(C)C)cn1 [(5-Isopropyl-pyridin-2-yl)-(3-methoxy-6-pyrazin-2-yl-pyridin-2-yl)-amine]	100 to 500 nM
COc1ccc(-c2ccccn2)nc1Nc1ccc(C(C)C)cn1 [(5-Isopropyl-pyridin-2-yl)-(5-methoxy-[2,2′]bipyridinyl-6-yl)-amine]	< 100 nM
COc1ccc(-c2ccccn2)nc1Nc1ccc(N2CCCCC2)cn1 [(5-Methoxy-[2,2′]bipyridinyl-6-yl)-(3,4,5,6-tetrahydro-2H-[1,3′]bipyridinyl-6′-yl)-amine]	< 100 nM
COc1ccc(-c2ccccn2)nc1Nc1ccc(N2CCN(C)CC2)cn1 [(5-Methoxy-[2,2′]bipyridinyl-6-yl)-[5-(4-methyl-piperazin-1-yl)-pyridin-2-yl]-amine]	< 100 nM
c1ccc(-c2cc(Nc3cccc(-c4nccs4)n3)[nH]n2)cc1 [(5-Phenyl-2H-pyrazol-3-yl)-(6-thiazol-2-yl-pyridin-2-yl)-amine]	< 100 nM
COc1ccc(-c2nccs2)nc1Nc1ccc(NC2CN3CCC2CC3)cn1 (stereo not shown) [N^5-(1-Aza-bicyclo[2.2.2]oct-3-yl)-N^2-(3-methoxy-6-thiazol-2-yl-pyridin-2-yl)-pyridine-2,5-diamine]	100 to 500 nM
COc1ccc(-c2nccs2)nc1Nc1ccc(-c2ccccn2)cn1 [[2,3′]Bipyridinyl-6′-yl-(3-methoxy-6-thiazol-2-yl-pyridin-2-yl)-amine]	< 100 nM
c1cncc(-c2ccc(Nc3cccc(-c4cnccn4)n3)nc2)c1 [[3,3′]Bipyridinyl-6-yl-(6-pyrazin-2-yl-pyridin-2-yl)-amine]	< 100 nM
COc1ccccc1-c1ccc(Nc2cccc(-n3cc(C)cn3)n2)nc1 [[5-(2-Methoxy-phenyl)-pyridin-2-yl]-[6-(4-methyl-pyrazol-1-yl)-pyridin-2-yl]-amine]	< 100 nM
c1cc(Nc2ccc(CN3CCc4ccccc4C3)cn2)nc(-c2nccs2)c1 [[5-(3,4-Dihydro-1H-isoquinolin-2-ylmethyl)-pyridin-2-yl]-(6-thiazol-2-yl-pyridin-2-yl)-amine]	< 100 nM
CN1CCN(c2ccc(Nc3cccc(-n4cccn4)n3)nc2)CC1 [[5-(4-Methyl-piperazin-1-yl)-pyridin-2-yl]-(6-pyrazol-1-yl-pyridin-2-yl)-amine]	500 to 1000 nM
Cc1cnn(-c2cccc(Nc3ccc(N4CCC(C)CC4)cn3)n2)c1 [[6-(4-Methyl-pyrazol-1-yl)-pyridin-2-yl]-(4-methyl-3,4,5,6-tetrahydro-2H-[1,3′]bipyridinyl-6′-yl)-amine]	100 to 500 nM

Now from value to compound:

IC50	Compound
< 100 nM	COc1ccc(-c2ncc(Cl)s2)nc1Nc1ccc(N2CCCC2=O)cn1 [1-{6-[6-(5-Chloro-thiazol-2-yl)-3-methoxy-pyridin-2-ylamino]-pyridin-3-yl}-pyrrolidin-2-one]
< 100 nM	CCOC(=O)CCc1ccc(Nc2cccc(-c3nccs3)n2)nc1 [3-[6-(6-Thiazol-2-yl-pyridin-2-ylamino)-pyridin-3-yl]-propionic acid ethyl ester]
100 to 500 nM	c1ccc(CNCc2ccc(Nc3cccc(-c4nccs4)n3)nc2)cc1 [5-[(Benzylamino)methyl]-N-[6-(1,3-thiazol-2-yl)pyridin-2-yl]pyridin-2-amine dihydrochloride]
100 to 500 nM	COC(=O)c1ccc(Nc2cccc(-n3cccn3)n2)nc1 [6-(6-Pyrazol-1-yl-pyridin-2-ylamino)-nicotinic acid methyl ester]
100 to 500 nM	CCc1cnc(-c2cccc(Nc3ccc(N4CCCCC4=O)cn3)n2)s1 [6′-[6-(5-Ethyl-thiazol-2-yl)-pyridin-2-ylamino]-3,4,5,6-tetrahydro-[1,3′]bipyridinyl-2-one]
< 100 nM	Brc1ccc(Nc2cccc(-c3nccs3)n2)nc1 [(5-Bromo-pyridin-2-yl)-(6-thiazol-2-yl-pyridin-2-yl)-amine]
< 100 nM	CCc1ccc(Nc2cccc(-c3nccs3)n2)nc1 [(5-Ethyl-pyridin-2-yl)-(6-thiazol-2-yl-pyridin-2-yl)-amine]
< 100 nM	Cc1cnn(-c2cccc(Nc3ccc(F)cn3)n2)c1 [(5-Fluoro-pyridin-2-yl)-[6-(4-methyl-pyrazol-1-yl)-pyridin-2-yl]-amine]
< 100 nM	c1cc(Nc2ccc(-c3ccco3)cn2)nc(-c2cnccn2)c1 [(5-Furan-2-yl-pyridin-2-yl)-(6-pyrazin-2-yl-pyridin-2-yl)-amine]
< 100 nM	c1cc(Nc2ccc(-c3ccco3)cn2)nc(-c2nccs2)c1 [(5-Furan-2-yl-pyridin-2-yl)-(6-thiazol-2-yl-pyridin-2-yl)-amine]
< 100 nM and 100 to 500 nM	COc1ccc(-c2nccs2)nc1Nc1ccc(C(C)C)cn1 [(5-Isopropyl-pyridin-2-yl)-(3-methoxy-6-thiazol-2-yl-pyridin-2-yl)-amine]
< 100 nM	Cc1cnn(-c2cccc(Nc3ccc(C(C)C)cn3)n2)c1 [(5-Isopropyl-pyridin-2-yl)-[6-(4-methyl-pyrazol-1-yl)-pyridin-2-yl]-amine]
< 100 nM	COc1ccc(Nc2cccc(-n3cc(C)cn3)n2)nc1 [(5-Methoxy-pyridin-2-yl)-[6-(4-methyl-pyrazol-1-yl)-pyridin-2-yl]-amine]
100 to 500 nM	CC(C)(C)c1ccc(Nc2cccc(-c3nccs3)n2)nc1 [(5-tert-Butyl-pyridin-2-yl)-(6-thiazol-2-yl-pyridin-2-yl)-amine]
500 to 1000 nM	Fc1cccc(Nc2cccc(-c3nccs3)n2)n1 [(6-Fluoro-pyridin-2-yl)-(6-thiazol-2-yl-pyridin-2-yl)-amine]
< 100 nM	c1cc(Nc2cc3ccccc3cn2)nc(-c2nccs2)c1 [Isoquinolin-3-yl-(6-thiazol-2-yl-pyridin-2-yl)-amine]
100 to 500 nM	COc1ccc(-c2nccs2)nc1Nc1ccc(N(C)C2CCN(C)C2)cn1 (stereo not shown) [N^2-(3-Methoxy-6-thiazol-2-yl-pyridin-2-yl)-N^5-methyl-N^5-(1-methyl-pyrrolidin-3-yl)-pyridine-2,5-diamine]
< 100 nM	COCCN(C)c1ccc(Nc2nc(-c3ncc(Cl)s3)ccc2OC)nc1 [N^2-[6-(5-Chloro-thiazol-2-yl)-3-methoxy-pyridin-2-yl]-N^5-(2-methoxy-ethyl)-N^5-methyl-pyridine-2,5-diamine]
< 100 nM	COCCN(C)c1ccc(Nc2cccc(-c3ncc(Cl)s3)n2)nc1 [N^2-[6-(5-Chloro-thiazol-2-yl)-pyridin-2-yl]-N^5-(2-methoxy-ethyl)-N^5-methyl-pyridine-2,5-diamine]
< 100 nM	Cc1ccc(-c2ccc(Nc3cccc(-c4nccs4)n3)nc2)o1 [[5-(5-Methyl-furan-2-yl)-pyridin-2-yl]-(6-thiazol-2-yl-pyridin-2-yl)-amine]
100 to 500 nM	COc1ccc(-c2ncc(Cl)s2)nc1Nc1ccc(N2CCCCC2)cn1 [[6-(5-Chloro-thiazol-2-yl)-3-methoxy-pyridin-2-yl]-(3,4,5,6-tetrahydro-2H-[1,3′]bipyridinyl-6′-yl)-amine]
< 100 nM	COc1ccc(-c2ncc(Cl)s2)nc1Nc1ccc(N2CCC(OC)CC2)cn1 [[6-(5-Chloro-thiazol-2-yl)-3-methoxy-pyridin-2-yl]-(4-methoxy-3,4,5,6-tetrahydro-2H-[1,3′]bipyridinyl-6′-yl)-amine]
< 100 nM	COc1ccc(-c2ncc(Cl)s2)nc1Nc1ccc(N2CCOCC2)cn1 [[6-(5-Chloro-thiazol-2-yl)-3-methoxy-pyridin-2-yl]-(5-morpholin-4-yl-pyridin-2-yl)-amine]
